Results from ChEMBL document CHEMBL1201862, “PubChem BioAssay data set” (2004).
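Protocol summary: plate cells (96-well), add compound at 5 concentrations, incubate 48 h, interpolate endpoints linearly. Abbreviation: GI50, concentration required for 50% inhibition of growth.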 Active and inactive are the calls of the source. Cut-off read from the data, not from the text of the source: active = GI50 up to about 1.1 µM and inactive = higher.

What was measured:
Test in all cases: growth of human tumour cells (NCI), 48 h
MDA-MB-231 = system: MDA-MB-231
LOX IMVI = system: LOX IMVI
IGROV-1 = system: IGROV-1
786-0 = system: 786-0
KM12 = system: KM12
UO-31 = system: UO-31
T47D = system: T47D
NCI-H23 = system: NCI-H23
MCF7 = system: MCF7
SF-295 = system: SF-295
DU-145 = system: DU-145
SK-MEL-5 = system: SK-MEL-5
SW-620 = system: SW-620
HT-29 = system: HT-29
NCI-H226 = system: NCI-H226
HOP-92 = system: HOP-92
MDA-N = system: MDA-N
HCT-116 = system: HCT-116
CAKI-1 = system: CAKI-1
PC-3 = system: PC-3
HL-60 = system: HL-60
A549 = system: A549
HCT-15 = system: HCT-15
CCRF-CEM = system: CCRF-CEM
SN12C = system: SN12C
NCI/ADR-RES = system: NCI/ADR-RES
MOLT-4 = system: MOLT-4
UACC-257 = system: UACC-257
SF-539 = system: SF-539
NCI-H460 = system: NCI-H460
EKVX = system: EKVX
SK-MEL-28 = system: SK-MEL-28
OVCAR-8 = system: OVCAR-8
OVCAR-3 = system: OVCAR-3
OVCAR-5 = system: OVCAR-5
Hs-578T = system: Hs-578T
SNB-19 = system: SNB-19
TK-10 = system: TK-10
NCI-H522 = system: NCI-H522
U-251 = system: U-251
COLO 205 = system: COLO 205
OVCAR-4 = system: OVCAR-4
HCC 2998 = system: HCC 2998
SK-MEL-2 = system: SK-MEL-2
SK-OV-3 = system: SK-OV-3
RPMI-8226 = system: RPMI-8226
UACC-62 = system: UACC-62
SF-268 = system: SF-268
A498 = system: A498
MDA-MB-435 = system: MDA-MB-435
SNB-75 = system: SNB-75
K562 = system: K562
RXF 393 = system: RXF 393
SR = system: SR
Malme-3M = system: Malme-3M
M14 = system: M14
ACHN = system: ACHN
HOP-62 = system: HOP-62

COc1ccc(/N=c2/[nH]c(N)c(C(=O)c3ccc(OC)cc3)s2)cc1
GI50 (MDA-MB-231): 1 µM (active)
GI50 (LOX IMVI): 0.596 µM (active)
GI50 (IGROV-1): 0.471 µM (active)
GI50 (786-0): 0.441 µM (active)
GI50 (KM12): 0.378 µM (active)
GI50 (UO-31): 0.468 µM (active)
GI50 (T47D): 18.7 µM (inactive)
GI50 (NCI-H23): 0.508 µM (active)
GI50 (MCF7): 3.23 µM (inactive)
GI50 (SF-295): 0.159 µM (active)
GI50 (DU-145): 0.378 µM (active)
GI50 (SK-MEL-5): 0.381 µM (active)
GI50 (SW-620): 0.273 µM (active)
GI50 (HT-29): 0.316 µM (active)
GI50 (NCI-H226): 17.7 µM (inactive)
GI50 (HOP-92): 25.1 µM (inactive)
GI50 (MDA-N): 0.0301 µM (active)
GI50 (HCT-116): 0.365 µM (active)
GI50 (CAKI-1): 0.313 µM (active)
GI50 (PC-3): 0.284 µM (active)
GI50 (HL-60): 0.119 µM (active)
GI50 (A549): 0.59 µM (active)
GI50 (HCT-15): 0.412 µM
GI50 (CCRF-CEM): 0.183 µM (active)
GI50 (SN12C): 1.93 µM (inactive)
GI50 (NCI/ADR-RES): 0.211 µM (active)
GI50 (MOLT-4): 0.0851 µM (active)
GI50 (UACC-257): > 100 µM (inactive)
GI50 (SF-539): 0.313 µM (active)
GI50 (NCI-H460): 0.347 µM (active)
GI50 (EKVX): 17.3 µM (inactive)
GI50 (SK-MEL-28): 4.55 µM (inactive)
GI50 (OVCAR-8): 0.537 µM (active)
GI50 (OVCAR-3): 0.255 µM (active)
GI50 (OVCAR-5): 15.3 µM (inactive)
GI50 (Hs-578T): 0.277 µM (active)
GI50 (SNB-19): 0.474 µM (active)
GI50 (TK-10): 15.1 µM (inactive)
GI50 (NCI-H522): 0.127 µM (active)
GI50 (U-251): 0.31 µM (active)
GI50 (COLO 205): 0.279 µM (active)
GI50 (OVCAR-4): 0.755 µM (active)
GI50 (HCC 2998): 0.755 µM (active)
GI50 (SK-MEL-2): 0.288 µM (active)
GI50 (SK-OV-3): 0.376 µM (active)
GI50 (RPMI-8226): 0.164 µM (active)
GI50 (UACC-62): 0.481 µM (active)
GI50 (SF-268): 12.9 µM (inactive)
GI50 (A498): 0.46 µM (active)
GI50 (MDA-MB-435): 0.0306 µM (active)
GI50 (SNB-75): 0.31 µM (active)
GI50 (K562): 0.0492 µM (active)
GI50 (RXF 393): 0.324 µM (active)

O=c1c2cccnc2oc2c(Cl)cc(-c3nnn[nH]3)cc12
GI50 (MDA-MB-231): > 100 µM (inactive)
GI50 (IGROV-1): > 100 µM (inactive)
GI50 (KM12): > 100 µM (inactive)
GI50 (UO-31): 24.7 µM (inactive)
GI50 (T47D): > 100 µM (inactive)
GI50 (NCI-H23): > 100 µM (inactive)
GI50 (SR): > 100 µM (inactive)
GI50 (DU-145): > 100 µM (inactive)
GI50 (SK-MEL-5): > 100 µM (inactive)
GI50 (SW-620): > 100 µM (inactive)
GI50 (HT-29): > 100 µM (inactive)
GI50 (NCI-H226): > 100 µM (inactive)
GI50 (HOP-92): 68.7 µM (inactive)
GI50 (MDA-N): > 100 µM (inactive)
GI50 (HCT-116): > 100 µM (inactive)
GI50 (CAKI-1): > 100 µM (inactive)
GI50 (PC-3): > 100 µM (inactive)
GI50 (HL-60): > 100 µM (inactive)
GI50 (A549): > 100 µM (inactive)
GI50 (HCT-15): > 100 µM
GI50 (CCRF-CEM): > 100 µM (inactive)
GI50 (SN12C): > 100 µM (inactive)
GI50 (NCI/ADR-RES): > 100 µM (inactive)
GI50 (Malme-3M): > 100 µM (inactive)
GI50 (SF-539): > 100 µM (inactive)
GI50 (EKVX): > 100 µM (inactive)
GI50 (SK-MEL-28): > 100 µM (inactive)
GI50 (M14): > 100 µM (inactive)
GI50 (OVCAR-8): > 100 µM (inactive)
GI50 (OVCAR-3): > 100 µM (inactive)
GI50 (OVCAR-5): > 100 µM (inactive)
GI50 (Hs-578T): > 100 µM (inactive)
GI50 (SNB-19): > 100 µM (inactive)
GI50 (TK-10): > 100 µM (inactive)
GI50 (ACHN): > 100 µM (inactive)
GI50 (HOP-62): > 100 µM (inactive)
GI50 (COLO 205): > 100 µM (inactive)
GI50 (OVCAR-4): > 100 µM (inactive)
GI50 (HCC 2998): > 100 µM (inactive)
GI50 (SK-MEL-2): > 100 µM (inactive)
GI50 (SK-OV-3): > 100 µM (inactive)
GI50 (UACC-62): > 100 µM (inactive)
GI50 (SF-268): > 100 µM (inactive)
GI50 (A498): > 100 µM (inactive)
GI50 (MDA-MB-435): > 100 µM (inactive)
GI50 (SNB-75): > 100 µM (inactive)
GI50 (K562): > 100 µM (inactive)
GI50 (RXF 393): > 100 µM (inactive)
